Experiments:
rat [1] = assay: concentration in blood after dosing; negative times count back from the end of exposure; settings: dosed: 1,1-dichloroethylene, inhalation, duration: 3 hr, male, Sprague-Dawley
Rat [2] = assay: concentration in plasma after dosing; settings: dosed: 2,4-Dichlorophenoxyacetic acid, Male, Sprague-Dawley

C=C(Cl)Cl [1,1-dichloroethylene]
rat [1]
Settings	concentration in blood [ng/mL]
0.1331 h, 75 ppm	162
0.1373 h, 300 ppm	2120
0.1374 h, 25 ppm	61.4
0.1383 h, 150 ppm	122
0.1969 h, 75 ppm	117
0.1973 h, 150 ppm	108
0.1979 h, 25 ppm	38.6
0.2044 h, 300 ppm	1740
0.2603 h, 150 ppm	92.9
0.2608 h, 75 ppm	83.7
0.261 h, 25 ppm	32.9
0.2757 h, 300 ppm	1350
0.3322 h, 75 ppm	62.5
0.3352 h, 300 ppm	1060
0.3356 h, 25 ppm	29.2
0.3396 h, 150 ppm	68
0.3946 h, 150 ppm	61.6
0.3984 h, 25 ppm	26.6
0.3984 h, 300 ppm	874
0.3991 h, 75 ppm	54.9
0.496 h, 25 ppm	25.4
0.4961 h, 150 ppm	60
0.508 h, 300 ppm	801
0.5085 h, 75 ppm	50.8
4 s, 75 ppm	340
13 s, 150 ppm	473
118 s, 25 ppm	126
132 s, 75 ppm	312
133 s, 150 ppm	291
137 s, 300 ppm	3090
232 s, 75 ppm	275
238 s, 25 ppm	78.9
238 s, 150 ppm	188
253 s, 300 ppm	2500

rat [1], during exposure
Settings	concentration in blood [ng/mL]
-14 s, 25 ppm	184
-8 s, 300 ppm	4150
-2.956 h, 25 ppm	50.3
-2.956 h, 75 ppm	100
-2.954 h, 300 ppm	1030
-2.951 h, 150 ppm	83
-2.903 h, 25 ppm	67.4
-2.899 h, 75 ppm	139
-2.899 h, 150 ppm	154
-2.893 h, 300 ppm	1320
-2.861 h, 150 ppm	190
-2.854 h, 300 ppm	1490
-2.853 h, 75 ppm	170
-2.846 h, 25 ppm	92.7
-2.793 h, 25 ppm	128
-2.793 h, 300 ppm	1680
-2.792 h, 150 ppm	271
-2.787 h, 75 ppm	188
-2.729 h, 75 ppm	212
-2.727 h, 25 ppm	143
-2.727 h, 150 ppm	302
-2.727 h, 300 ppm	1840
-2.657 h, 150 ppm	325
-2.653 h, 25 ppm	149
-2.653 h, 300 ppm	1920
-2.652 h, 75 ppm	253
-2.583 h, 300 ppm	2080
-2.582 h, 75 ppm	263
-2.575 h, 25 ppm	143
-2.568 h, 150 ppm	371
-2.498 h, 25 ppm	155
-2.494 h, 300 ppm	2200
-2.492 h, 75 ppm	283
-2.49 h, 150 ppm	408
-2.396 h, 300 ppm	2250
-2.393 h, 25 ppm	162
-2.391 h, 75 ppm	301
-2.389 h, 150 ppm	421
-2.197 h, 75 ppm	333
-2.194 h, 25 ppm	162
-2.194 h, 150 ppm	424
-2.194 h, 300 ppm	2410
-1.996 h, 300 ppm	2600
-1.995 h, 25 ppm	166
-1.99 h, 75 ppm	335
-1.988 h, 150 ppm	461
-1.743 h, 300 ppm	2760
-1.742 h, 25 ppm	171
-1.741 h, 75 ppm	340
-1.738 h, 150 ppm	453
-1.5 h, 25 ppm	176
-1.497 h, 300 ppm	3050
-1.496 h, 75 ppm	346
-1.493 h, 150 ppm	463
-1.003 h, 300 ppm	3380
-1.002 h, 150 ppm	450
-0.9974 h, 25 ppm	172
-0.9966 h, 75 ppm	338
-0.5007 h, 300 ppm	3850
-0.4991 h, 150 ppm	466
-0.4977 h, 75 ppm	337
-0.4481 h, 25 ppm	182

O=C(O)COc1ccc(Cl)cc1Cl [2,4-Dichlorophenoxyacetic acid]
Rat [2]
Settings	concentration in plasma [ng/mL]
0.25 h, 2.0 mg/kg, iv	12200
0.25 h, 7.0 mg/kg, oral	9670
0.5 h, 2.0 mg/kg, iv	7630
0.5 h, 7.0 mg/kg, oral	4670
0.75 h, 2.0 mg/kg, iv	4750
2 h, 2.0 mg/kg, iv	376
2 h, 7.0 mg/kg, oral	6510
2.5 h, 2.0 mg/kg, iv	2040
2.5 min, 2.0 mg/kg, iv	24800
2.5 min, 7.0 mg/kg, oral	9340
3 h, 2.0 mg/kg, iv	863
3 h, 7.0 mg/kg, oral	3570
3.5 h, 2.0 mg/kg, iv	858
4 h, 2.0 mg/kg, iv	482
4 h, 7.0 mg/kg, oral	7740
5 h, 7.0 mg/kg, oral	4720
6 h, 7.0 mg/kg, oral	472
10 min, 2.0 mg/kg, iv	14100
10 min, 7.0 mg/kg, oral	12500

From EPA's CvTdb concentration-time database
